From publication PMC7539012, “Hyperphosphorylated tau aggregation and cytotoxicity modulators screen identified prescription drugs linked to Alzheimer's disease and cognitive functions” (Scientific Reports, 2020)
Where a name gives a salt, the structure may show the parent alone. Read-outs that look alike come from different tables or passages of the source.

Tested on: T1, 1N4R p-tau
T1 construct: made in house; host or cells: E. coli (PIMAX system)
Test: p-tau aggregation modulator screen of 1280-compound library (ThS fluorescence net change over 16 h);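 for ThS net change: 30 µM compound with 6 µM p-tau over 16 h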
Format: biochemical
Parameters: key to PTAI>3SD: *: PTAI>3SD
Settings: for PTAI>3SD: flag: p-tau aggregation inhibitor, ThS net change more than 3 SD from mean

[1] = 1280-compound library screen, […]
[2] = 1280-compound library screen, ThS fluorescence net change over 16 h
[3] = p-tau aggregation modulator screen of 1280-compound library, […]
[4] = p-tau aggregation modulator screen of the compound library, ThS fluorescence net change
[5] = p-tau aggregation modulator screen of 1280-compound library, ThS fluorescence net change
[6] = library screen, ThS fluorescence net change over 16 h with p-tau

## CC(=O)OCC(=O)[C@H]1CC[C@H]2[C@@H]3CC[C@H]4C[C@H](O)CC[C@]4(C)[C@H]3C(=O)C[C@]12C [Alfadolone acetate]
[1]
  ThS net change: 396

## CC(=O)[C@H]1CC[C@H]2[C@@H]3CC[C@H]4C[C@H](O)CC[C@]4(C)[C@H]3C(=O)C[C@]12C [Alfaxalone]
  ThS net change: 420

## COc1cc2nc(N(C)CCCNC(=O)C3CCCO3)nc(N)c2cc1OC (stereo not drawn) [Alfuzosin hydrochloride]
[2]
  ThS net change: 391

## CC(=O)[C@@]12O[C@](C)(c3ccccc3)O[C@@H]1C[C@H]1[C@@H]3CCC4=CC(=O)CC[C@]4(C)[C@H]3CC[C@@]12C [Algestone acetophenide]
[3]
  ThS net change: 336

## C=CCN1CCCC1CNC(=O)c1cc2nn[nH]c2cc1OC.Cl (stereo not drawn) [Alizapride HCl]
[2]
  ThS net change: 383

## NC(=O)NC1NC(=O)NC1=O (stereo not drawn) [Allantoin]
[2]
  ThS net change: 390

## Oc1ncnc2[nH]ncc12 [Allopurinol]
[2]
  ThS net change: 396

## Cc1[nH]cnc1CN1CCc2c(c3ccccc3n2C)C1=O [Alosetron hydrochloride]
[4]
  ThS net change: 429

## C=CCc1ccccc1OCC(O)CNC(C)C (stereo not drawn) [Alprenolol hydrochloride]
[5]
  ThS net change: 376

## CCCCC[C@H](O)/C=C/[C@H]1[C@H](O)CC(=O)[C@@H]1CCCCCCC(=O)O [Alprostadil]
[4]
  ThS net change: 445

## C=CCSCC1Nc2cc(Cl)c(S(N)(=O)=O)cc2S(=O)(=O)N1 (stereo not drawn) [Althiazide]
[2]
  ThS net change: 409

## C=CC[C@]1(O)CC[C@H]2[C@@H]3CCC4=CC(=O)CCC4=C3C=C[C@@]21C [Altrenogest]
  ThS net change: 432

## CN(C)c1nc(N(C)C)nc(N(C)C)n1 [Altretamine]
[4]
  ThS net change: 414

## CCN(CCCc1ccccc1)CCCc1ccccc1.O=C(O)CC(O)(CC(=O)O)C(=O)O [Alverine citrate salt]
[5]
  ThS net change: 374

## COC(c1ccccc1)(c1ccccc1)[C@H](Oc1nc(C)cc(C)n1)C(=O)O [Ambrisentan]
[4]
  ThS net change: 506

## Cl.Nc1c(Br)cc(Br)cc1CN[C@H]1CC[C@H](O)CC1 [Ambroxol hydrochloride]
[5]
  ThS net change: 364

## CC(=O)OCC(=O)[C@@]12OC3(CCCC3)O[C@@H]1C[C@H]1[C@@H]3CCC4=CC(=O)C=C[C@]4(C)[C@@]3(F)[C@@H](O)C[C@@]12C [Amcinonide]
[4]
  ThS net change: 477

## CCN(CC)C(C)C(=O)c1ccccc1 (stereo not drawn) [Amfepramone hydrochloride]
[1]
  ThS net change: 388

## Cc1c(N(C)C)c(=O)n(-c2ccccc2)n1C [Amidopyrine]
[5]
  ThS net change: 368

## NCCCNCCSP(=O)(O)O [Amifostine]
[2]
  ThS net change: 392

## NCC[C@H](O)C(=O)N[C@@H]1C[C@H](N)[C@@H](O[C@H]2O[C@H](CN)[C@@H](O)[C@H](O)[C@H]2O)[C@H](O)[C@H]1O[C@H]1O[C@H](CO)[C@@H](O)[C@H](N)[C@H]1O.O.O [Amikacin hydrate]
  ThS net change: 418

## N=C(N)NC(=O)c1nc(Cl)c(N)nc1N [Amiloride hydrochloride dihydrate]
[2]
  ThS net change: 401

## Nc1c2ccccc2nc2ccccc12 [Aminacrine]
[2]
  ThS net change: 408

## NCCCCCC(=O)O [Aminocaproic acid]
  ThS net change: 456

## Nc1ccc(C(=O)NCC(=O)O)cc1 [Aminohippuric acid]
[5]
  ThS net change: 344

## Cn1c(=O)c2[nH]cnc2n(C)c1=O [Aminophylline]
[2]
  ThS net change: 403

## c1ccc(CNc2ncnc3nc[nH]c23)cc1 [Aminopurine, 6-benzyl]
[5]
  ThS net change: 348

## CCCCc1oc2ccccc2c1C(=O)c1cc(I)c(OCCN(CC)CC)c(I)c1 [Amiodarone hydrochloride]
[4]
  ThS net change: 436

## CN(C)CCCO[C@@H]1[C@H]2OC(C)(C)O[C@H]2O[C@@H]1[C@H](O)CO [Amiprilose hydrochloride]
[5]
  ThS net change: 367

## CCN1CCCC1CNC(=O)c1cc(S(=O)(=O)CC)c(N)cc1OC (stereo not drawn) [Amisulpride]
[4]
  ThS net change: 428

## CN(C)CCC=C1c2ccccc2CCc2ccccc21.Cl [Amitryptiline hydrochloride]
[5]
  ThS net change: 362

## CC(C)c1ccc2oc3nc(N)c(C(=O)O)cc3c(=O)c2c1 [Amlexanox]
[3]
  ThS net change: 376

## CCOC(=O)C1=C(COCCN)NC(C)=C(C(=O)OC)C1c1ccccc1Cl (stereo not drawn) [Amlodipine]
[5]
  ThS net change: 351

## CCN(CC)Cc1cc(Nc2ccnc3cc(Cl)ccc23)ccc1O.Cl.Cl.O.O [Amodiaquin dihydrochloride dihydrate]
  ThS net change: 309

## CCC(C)(C)c1ccc(CC(C)CN2C[C@@H](C)O[C@@H](C)C2)cc1 (stereo partly drawn) [Amorolfine hydrochloride]
  ThS net change: 413

## Clc1ccc2c(c1)C(N1CCNCC1)=Nc1ccccc1O2 [Amoxapine]
[4]
  ThS net change: 416

## CC1(C)S[C@@H]2[C@H](NC(=O)[C@H](N)c3ccc(O)cc3)C(=O)N2[C@H]1C(=O)O [Amoxicillin]
[2]
  ThS net change: 388

## C[C@@H]1[C@H](O)[C@@H](C)/C=C/C=C/C=C/C=C/C=C/C=C/C=C/[C@H](O[C@@H]2O[C@H](C)[C@@H](O)[C@H](N)[C@@H]2O)C[C@@H]2O[C@](O)(C[C@@H](O)C[C@@H](O)[C@H](O)CC[C@@H](O)C[C@@H](O)CC(=O)O[C@H]1C)C[C@H](O)[C@H]2C(=O)O [Amphotericin B]
[2]
  ThS net change: 396

## CC1(C)S[C@@H]2[C@H](NC(=O)[C@H](N)c3ccccc3)C(=O)N2[C@H]1C(=O)O [Ampicillin trihydrate]
[5]
  ThS net change: 355

## CCOC(=O)OC(C)OC1=C(C(=O)Nc2ccccn2)N(C)S(=O)(=O)c2ccccc21 (stereo not drawn) [Ampiroxicam]
[4]
  ThS net change: 493

## CCCc1ncc(C[n+]2ccccc2C)c(N)n1 [Amprolium hydrochloride]
  ThS net change: 424

## Cc1c(N)c(=O)n(-c2ccccc2)n1C [Ampyrone]
[2]
  ThS net change: 388

## Nc1cc(-c2ccncc2)c[nH]c1=O [Amrinone]
[2]
  ThS net change: 410

## CCC(C)(CN(C)C)OC(=O)c1ccccc1.Cl (stereo not drawn) [Amyleine hydrochloride]
[3]
  ThS net change: 365

## O=C1CN2Cc3c(ccc(Cl)c3Cl)N=C2N1 [Anagrelide]
  PTAI>3SD: *
[6]
  ThS net change: 22

## CC(C)(C#N)c1cc(Cn2cncn2)cc(C(C)(C)C#N)c1 [Anastrozole]
[4]
  ThS net change: 484

## C[C@]12CC[C@@H](O)C[C@@H]1CC[C@@H]1[C@@H]2CC[C@]2(C)C(=O)CC[C@@H]12 [Androsterone]
  ThS net change: 449

## COc1ccc(-c2cc(=S)ss2)cc1 [Anethole-trithione]
  PTAI>3SD: *
[6]
  ThS net change: 46

## COc1ccc(C(=O)N2CCCC2=O)cc1 [Aniracetam]
[2]
  ThS net change: 408

## c1ccc(CN(CC2=NCCN2)c2ccccc2)cc1 [Antazoline hydrochloride]
[2]
  ThS net change: 399

## O=C1c2c(O)cccc2Cc2cccc(O)c21 [Anthralin]
  PTAI>3SD: *
[6]
  ThS net change: 85

## CCCCCC[C@H]1C(=O)O[C@H](C)[C@H](NC(=O)c2cccc(NC=O)c2O)C(=O)O[C@@H](C)[C@@H]1OC(=O)CC(C)C [Antimycin A]
[6]
  ThS net change: 211

## Cc1c(O)c(=O)n(-c2ccccc2)n1C [Antipyrine, 4-hydroxy]
[5]
  ThS net change: 371

## Cc1cc(=O)n(-c2ccccc2)n1C [Antipyrine]
[3]
  ThS net change: 359

## CN[C@@H]1[C@@H](O[C@H]2O[C@H](CO)[C@@H](N)[C@H](O)[C@H]2O)OC2C[C@@H](N)[C@@H](O[C@H]3[C@H](O)[C@@H](O)[C@H](N)C[C@@H]3N)OC2[C@@H]1O (stereo partly drawn) [Apramycin]
[4]
  ThS net change: 416

## C[C@@H](O[C@H]1OCCN(Cc2n[nH]c(=O)[nH]2)[C@H]1c1ccc(F)cc1)c1cc(C(F)(F)F)cc(C(F)(F)F)c1 [Aprepitant]
[4]
  ThS net change: 451

## OC[C@H]1O[C@@H](Oc2ccc(O)cc2)[C@H](O)[C@@H](O)[C@@H]1O [Arbutin]
[2]
  ThS net change: 409

## CC1CNc2c(cccc2S(=O)(=O)N[C@@H](CCCNC(=N)N)C(=O)N2CC[C@@H](C)C[C@@H]2C(=O)O)C1 (stereo partly drawn) [Argatroban]
[2]
  ThS net change: 388

## O=C1CCc2ccc(OCCCCN3CCN(c4cccc(Cl)c4Cl)CC3)cc2N1 [Aripiprazole]
[2]
  ThS net change: 386

## C[C@@H]1CC[C@H]2[C@@H](C)C(=O)O[C@@H]3O[C@@]4(C)CC[C@@H]1[C@]32OO4 [Artemisinin]
[5]
  ThS net change: 356

## CCCNC(C)C(=O)Nc1c(C)csc1C(=O)OC (stereo not drawn) [Articaine hydrochloride]
[4]
  ThS net change: 450

## O=C1O[C@H]([C@@H](O)CO)C(O)=C1O [Ascorbic acid]
[5]
  ThS net change: 361

## CN1CC2c3ccccc3Oc3ccc(Cl)cc3C2C1 (stereo not drawn) [Asenapine maleate]
[3]
  ThS net change: 375

## COc1ccc(CCN2CCC(Nc3nc4ccccc4n3Cc3ccc(F)cc3)CC2)cc1 [Astemizole]
[6]
  ThS net change: 265

## CC(C)c1c(C(=O)Nc2ccccc2)c(-c2ccccc2)c(-c2ccc(F)cc2)n1CC[C@@H](O)C[C@@H](O)CC(=O)O [Atorvastatin]
[4]
  ThS net change: 488

## O=C1C(O)=C([C@H]2CC[C@H](c3ccc(Cl)cc3)CC2)C(=O)c2ccccc21 [Atovaquone]
[6]
  ThS net change: 266

## COc1ccc(CC2c3cc(OC)c(OC)cc3CC[N+]2(C)CCC(=O)OCCCCCOC(=O)CC[N+]2(C)CCc3cc(OC)c(OC)cc3C2Cc2ccc(OC)c(OC)c2)cc1OC (stereo not drawn) [Atracurium besylate]
[5]
  ThS net change: 370

## CN1[C@@H]2CC[C@H]1C[C@@H](OC(=O)C(CO)c1ccccc1)C2 (stereo partly drawn) [Atropine sulfate monohydrate]
  ThS net change: 397

## CC[P](CC)(CC)=[Au][S][C@@H]1O[C@H](COC(C)=O)[C@@H](OC(C)=O)[C@H](OC(C)=O)[C@H]1OC(C)=O [Auranofin]
[5]
  ThS net change: 365

## CC[C@H](C)[C@H]1O[C@]2(C=C[C@@H]1C)C[C@@H]1C[C@@H](C/C=C(\C)[C@@H](O[C@H]3C[C@H](OC)[C@@H](O[C@H]4C[C@H](OC)[C@@H](O)[C@H](C)O4)[C@H](C)O3)[C@@H](C)/C=C/C=C3\CO[C@@H]4[C@H](O)C(C)=C[C@@H](C(=O)O1)[C@]34O)O2 [Avermectin B1a]
[4]
  ThS net change: 676

## COc1ccc(C(=O)CC(=O)c2ccc(C(C)(C)C)cc2)cc1 [Avobenzone]
[6]
  ThS net change: 250

## OC(c1ccccc1)(c1ccccc1)C1CCNCC1 [Azacyclonol]
[1]
  ThS net change: 400
